Reference: patent US6583179B2, “Substituted aminoalkylamide derivatives as antagonists of follicle stimulating hormone” (Ortho-McNeil Pharmaceutical, Inc., priority 1999, dated 2003)
Each block holds one compound with its values, some of them ahead of it.

Legend:
[1] = test system: immature male Wistar rats; experiment: Effects on spermatogenesis in immature male rats; assay type: in vivo, rat; conditions: 20 mg/kg BID for 25 days; for Serum Testosterone (t = 3 hr, d = 25): 3 hr after dosing; for Mating Sperm: animals with sperm / animals
Procedure: Twenty-one day old immature male Wistar rats (Charles River) were treated with FSH antagonist at a concentration of 20 mg/kg BID for 25 days. On the penultimate day of treatment, blood samples were collected by orbital puncture immediately prior to oral dosing, and 3 hours after dosing into Vacutainers containing EDTA. On the last day of treatment, blood samples were again collected prior to time of compound administration. The concentrations of LH, FSH and testosterone were measured in the plasma. Testosterone was measured using a Coat-A-Count kit (Diagnostic Products Corp.) and luteinizing hormone and follicle stimulating hormone concentrations were measured following previously established. At the end of the treatment period, the animals were sacrificed, testes and prostates were collected and weighed, and the testes were prepared for histological examination. The presence of sperm in testes were evaluated by hematoxylin and eosin staining, and in separate slides with a BERG stain (REF, 1963).

[2] = test system: mature cycling female Wistar rats; experiment: Interruption of 4-day estrus cycle; assay type: in vivo, rat; conditions: 20 mg/kg BID oral through 2 estrus cycles; for Estradiol Concentration / Progesterone Concentration: blood on morning of estrus; for # Ovulated Eggs: eggs in the oviduct
Procedure: The estrus cycles of mature cycling female Wistar rats (250 g) were monitored for 2 consecutive estrus cycles to select animals with regular 4-day estrus cycles. The animals were randomly assigned to treatment groups on the morning of estrus. Starting on the morning of estrus and continuing through 2 estrus cycles, the animals orally dosed with vehicle or test compound at a concentration of 20 mg/kg; BID. At the end of the second estrus cycle, blood samples were collected by orbital puncture on the morning of estrus. The animals were then sacrificed, and the number of ovulated eggs in the oviduct were counted.

Rat Granulosa Cell = experiment: Rat granulosa cell FSH-stimulated cAMP production; assay type: cell-based; conditions: inhibition of cAMP produced by EC70 dose of FSH (1.4 nM), maximum concentration 50 μM
Procedure: Insulin, diethylstilbesterol, androstenedione, forskolin and DMSO were purchased from Sigma (St. Louis, Mo.). Fungizone, penicillin/streptomycin, charcoal-treated heat inactivated fetal bovine serum (CT-HI-FBS) and Dulbecco's Modified Eagle Medium:Hams F12 medium containing 15 mM Hepes and L-glutamine (DMEM:F12), were purchased from GIBCO BRL (Grand Island, N.Y.).
Ovine FSH (NIADDK-oFSH-17; FSH potency=20 NIH-FSH-S1 U/mg; LH contamination=0.04 times NIH-LH-S1) was received from Ogden Bioservices Corporation, Rockville, Md. Human FSH (Fertinex), was purchased from Serono Pharmaceutical (Framingham, Mass.). Human chorionic gonadotropin (hCG) was purchased from Sigma (St Louis, Mo.).
Immature intact female rats (Wistar-derived strain; 21-23 days old) were implanted with a single pellet (Innovative Research of America, Sarasota, Fla.) containing 2.5 mg diethylstilbesterol (DES) for 3 days. On the third day, the animals were sacrificed, the ovaries were removed, and the granulosa cells were isolated essentially as described in Haynes-Johnson et al., Biol. Reprod., 61 (1), 147-153, (1999). Granulosa cells were plated at a density of 300,000 cells per ml with 0.2 ml added to each well of 96 well culture dishes (Corning, N.Y.). Cultures were incubated at 37° C. in a humidified incubator (95% air, 5% CO2) overnight (18 hours).
Androstenedione (100,000X) was prepared by dissolving the steroid in 100% ethanol, and was subsequently diluted to a final concentration of 10^−7M containing 0.1% ethanol in assay media. The assay media was serum-free, DES-free, insulin-free media, prepared by adding 5 mL pen-strep,1.5 mL fungizone and 5 μL androstenedione to 493.5 mL DMEM F-12 media.
Test compounds were solubilized in 30% dimethyl sulfoxide (DMSO) at a concentration of 10 mM before diluting to appropriate concentrations in assay medium. The final DMSO concentration in the treated cells and in the control cells was 0.75%.
Test plates containing the granulosa cells were preincubated for 18 hours at 37° C. with 95% air, 5% CO2, 100% humidity. The spent media was removed and 50 μl assay media (DMEM:F12) containing 2 mM IBMX (3-isobutyl-1-methyl-xanthine) was added to the cells. Compounds (25 μl) in the appropriate concentration were added followed 5 minutes later by an EC70 dose of FSH (25 μl; 50 ng/ml; 1.4 nM). After 30 minutes @ 22.5° C. (room temperature) the reaction was terminated by addition of 25 μL 0.5 N hydrochloric acid to each well. The amount of cAMP produced was measured by radioimmunoassay in a FlashPlate (DuPont, Boston, Mass.). To each flash plate 60 μL flash plate buffer was added followed by 40 μL acidified cell sample or cAMP standard, followed with the addition of 100 μl ^125l-cAMP trace. The FlashPlates were sealed, incubated overnight @ room temperature, and counted in a Packard TopCount (Packard Instrument Co., Meriden, Conn.). The cAMP radioimmunoassay results were calculated using DPM conversion and log-logit transformation of % binding (Excel program).

EC50 (Rat Granulosa Cell): 20 nM
SMILES: C[C@@H](CN(CC(=O)NCc1ccc(CN)cc1)S(=O)(=O)c1ccc(-c2ccccc2Cl)cc1)c1ccccc1 [Compound 198]
Prostate Weight [1]: 1.6 ± 0.2
Testes Weight [1]: 8.8 ± 0.2
Serum Testosterone (t = 3 hr, d = 25) [1]: 3.6 ± 0.6
Mating Sperm [1]: 3/4
Estradiol Concentration [2]: 20.1 ± 4.4
Progesterone Concentration [2]: 3.6 ± 0.9
# Ovulated Eggs [2]: 14.0

EC50 (Rat Granulosa Cell): 10 nM
SMILES: Cc1ccccc1-c1ccc(S(=O)(=O)N(CC(=O)NCc2ccc(CN)cc2)C[C@@H](C)c2ccccc2)cc1 [Compound 215]
Prostate Weight [1]: 1.8 ± 0.1
Testes Weight [1]: 8.7 ± 0.5
Serum Testosterone (t = 3 hr, d = 25) [1]: 4.9 ± 0.7
Mating Sperm [1]: 1/4
Estradiol Concentration [2]: 22.2 ± 4.2
Progesterone Concentration [2]: 2.6 ± 0.6
# Ovulated Eggs [2]: 16.3
